Reference: PubChem BioAssay AID256 (DTP/NCI, 2004)
Several values for one entry are separate records, joined by “and”; a condition that tells them apart may be missing. Equal entries are not always repeated. Toxic doses and inconclusive results are not listed. How the source made its calls: active means survival T/C of 150% or more; inactive means T/C below 125% in these data.

Tested on: CD2F1 mice, L1210 leukemia ip, survival T/C
Test: NCI In Vivo Anticancer Drug Screen. Data for tumor model L1210 Leukemia (intraperitoneal) in CD2F1 (CDF1) mice
Conditions: higher = longer survival
How it was run: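 Mice carrying a transplanted tumor received test compound or vehicle alone. The value is the measurement in the treated group divided by that in the vehicle-treated control group.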

[1] = endpoint: mean survival time, dose: 100.0 mg/kg/injection, schedule: Q01DX009 (ip), vehicle: saline
[2] = endpoint: mean survival time, dose: 200.0 mg/kg/injection, schedule: Q01DX009 (ip), vehicle: saline
[3] = endpoint: mean survival time, dose: 25.0 mg/kg/injection, schedule: Q01DX001 (ip), vehicle: saline
[4] = endpoint: mean survival time, dose: 50.0 mg/kg/injection, schedule: Q01DX001 (ip), vehicle: saline
[5] = endpoint: mean survival time, dose: 100.0 mg/kg/injection, schedule: Q01DX001 (ip), vehicle: saline
[6] = endpoint: mean survival time, dose: 12.5 mg/kg/injection, schedule: Q01DX009 (ip), vehicle: saline with Tween-80
[7] = endpoint: mean survival time, dose: 50.0 mg/kg/injection, schedule: Q01DX009 (ip), vehicle: saline with Tween-80
[8] = endpoint: mean survival time, dose: 100.0 mg/kg/injection, schedule: Q01DX009 (ip), vehicle: saline with Tween-80
[9] = endpoint: mean survival time, dose: 100.0 mg/kg/injection, schedule: Q04DX003 (ip), vehicle: saline with Tween-80
[10] = endpoint: mean survival time, dose: 200.0 mg/kg/injection, schedule: Q01DX009 (ip), vehicle: saline with Tween-80
[11] = endpoint: mean survival time, dose: 200.0 mg/kg/injection, schedule: Q04DX003 (ip), vehicle: saline with Tween-80
[12] = endpoint: mean survival time, dose: 400.0 mg/kg/injection, schedule: Q01DX009 (ip), vehicle: saline with Tween-80
[13] = endpoint: mean survival time, dose: 400.0 mg/kg/injection, schedule: Q04DX003 (ip), vehicle: saline with Tween-80
[14] = endpoint: mean survival time, dose: 400.0 mg/kg/injection, schedule: Q01DX001 (ip), vehicle: saline with Tween-80
[15] = endpoint: mean survival time, dose: 100.0 mg/kg/injection, schedule: Q01DX001 (ip), vehicle: saline with Tween-80
[16] = endpoint: mean survival time, dose: 200.0 mg/kg/injection, schedule: Q01DX001 (ip), vehicle: saline with Tween-80

Measured: T/C

Oc1cccc(O)c1
inactive: endpoint: mean survival time, dose: 50.0 mg/kg/injection, schedule: Q01DX009 (ip), vehicle: saline 98 % of control | [1] 95 % of control | [2] 101 % of control

Oc1cc(O)c(Cl)cc1Cl
inactive: [3] 103 % of control | [4] 95 % of control | [5] 95 % of control and 104 % of control

Clc1cc(Cl)c(C[N+]23CN4CN(CN(C4)C2)C3)cc1Cl
inactive: [6] 104 % of control | endpoint: mean survival time, dose: 25.0 mg/kg/injection, schedule: Q01DX009 (ip), vehicle: saline with Tween-80 98 % of control | [7] 92 % of control and 109 % of control | [8] 104 % of control and 112 % of control | [9] 106 % of control | [10] 108 % of control | [11] 104 % of control

O=c1nc(N2CCCCCCC2)ccn1C1OC(CO)C(O)C1O (stereo not given)
inactive: endpoint: median survival time, dose: 12.5 mg/kg/injection, schedule: Q01DX005 (ip), vehicle: water 98 % of control | endpoint: median survival time, dose: 25.0 mg/kg/injection, schedule: Q01DX005 (ip), vehicle: water 98 % of control | endpoint: median survival time, dose: 50.0 mg/kg/injection, schedule: Q01DX005 (ip), vehicle: water 118 % of control | endpoint: median survival time, dose: 100.0 mg/kg/injection, schedule: Q01DX005 (ip), vehicle: water 112 % of control | endpoint: median survival time, dose: 200.0 mg/kg/injection, schedule: Q01DX005 (ip), vehicle: water 104 % of control

C[Si](C)(C)Nc1ncnc2c1ncn2[Si](C)(C)C
inactive: [8] 94 % of control | [9] 103 % of control | [10] 105 % of control | [11] 103 % of control | [12] 106 % of control | [13] 101 % of control

Nc1nc(N)c2c(n1)NCN(CCc1ccc(Cl)cc1Cl)C2
inactive: endpoint: mean survival time, dose: 0.75 mg/kg/injection, schedule: Q01DX009 (ip), vehicle: distilled water + Tween-80 100 % of control | endpoint: mean survival time, dose: 1.5 mg/kg/injection, schedule: Q01DX009 (ip), vehicle: distilled water + Tween-80 102 % of control | endpoint: mean survival time, dose: 3.0 mg/kg/injection, schedule: Q01DX009 (ip), vehicle: distilled water + Tween-80 100 % of control | endpoint: mean survival time, dose: 6.0 mg/kg/injection, schedule: Q01DX009 (ip), vehicle: distilled water + Tween-80 102 % of control | endpoint: mean survival time, dose: 12.0 mg/kg/injection, schedule: Q01DX009 (ip), vehicle: distilled water + Tween-80 96 % of control | endpoint: mean survival time, dose: 24.0 mg/kg/injection, schedule: Q01DX009 (ip), vehicle: distilled water + Tween-80 98 % of control | endpoint: mean survival time, dose: 37.5 mg/kg/injection, schedule: Q01DX009 (ip), vehicle: distilled water + Tween-80 96 % of control | endpoint: mean survival time, dose: 75.0 mg/kg/injection, schedule: Q01DX009 (ip), vehicle: distilled water + Tween-80 94 % of control

O=C1c2[nH]c3ccccc3c2CC1N1C(=O)c2ccccc2C1=O (stereo not given)
inactive: [9] 87 % of control | [11] 93 % of control | [13] 91 % of control

CC(=O)Nc1nnc([N+](=O)[O-])s1
inactive: [9] 95 % of control | [11] 91 % of control | [13] 94 % of control

COC(=O)c1ccc(C)c(O)c1[N+](=O)[O-]
inactive: [8] 100 % of control | [10] 96 % of control | [12] 101 % of control

O=C(Nc1ccccc1)OC1CCCCC1OC(=O)Nc1ccccc1 (stereo not given)
inactive: [14] 86 % of control

CC1(C)C/C(=C\c2cc(O)ccc2[N+](=O)[O-])C(=O)c2ccccc21
inactive: [8] 97 % of control | [9] 101 % of control | [10] 94 % of control | [11] 106 % of control | [12] 97 % of control | [13] 103 % of control

CS(=O)(=O)/C=C(\I)c1ccccc1
inactive: [1] 98 % of control | endpoint: mean survival time, dose: 100.0 mg/kg/injection, schedule: Q04DX003 (ip), vehicle: saline 104 % of control | [2] 93 % of control | endpoint: mean survival time, dose: 200.0 mg/kg/injection, schedule: Q04DX003 (ip), vehicle: saline 106 % of control | endpoint: mean survival time, dose: 400.0 mg/kg/injection, schedule: Q01DX009 (ip), vehicle: saline 95 % of control | endpoint: mean survival time, dose: 400.0 mg/kg/injection, schedule: Q04DX003 (ip), vehicle: saline 98 % of control

COc1ccc2c(c1)c(C#N)cc[n+]2C
inactive: endpoint: mean survival time, dose: 6.25 mg/kg/injection, schedule: Q01DX009 (ip), vehicle: saline with Tween-80 100 % of control | [6] 110 % of control | endpoint: mean survival time, dose: 12.5 mg/kg/injection, schedule: Q04DX003 (ip), vehicle: saline with Tween-80 100 % of control | endpoint: mean survival time, dose: 25.0 mg/kg/injection, schedule: Q04DX003 (ip), vehicle: saline with Tween-80 91 % of control

COc1cc(/C=N/n2cnnc2)cc(OC)c1OC
inactive: [9] 101 % of control | [11] 95 % of control | [13] 96 % of control

O=CO.[Mn]
inactive: endpoint: mean survival time, dose: 5.0 mg/kg/injection, schedule: Q01DX001 (ip), vehicle: saline 96 % of control | endpoint: mean survival time, dose: 10.0 mg/kg/injection, schedule: Q01DX001 (ip), vehicle: saline 101 % of control | endpoint: mean survival time, dose: 20.0 mg/kg/injection, schedule: Q01DX001 (ip), vehicle: saline 96 % of control | endpoint: mean survival time, dose: 40.0 mg/kg/injection, schedule: Q01DX001 (ip), vehicle: saline 96 % of control | endpoint: mean survival time, dose: 80.0 mg/kg/injection, schedule: Q01DX001 (ip), vehicle: saline 98 % of control

CC[N-]c1nncs1.CC[N-]c1nncs1.CC[N-]c1nncs1.CC[N-]c1nncs1.[Cl][Rh][Cl]
inactive: endpoint: mean survival time, dose: 3.13 mg/kg/injection, schedule: Q04DX003 (ip), vehicle: distilled water + Tween-80 104 % of control | endpoint: mean survival time, dose: 6.25 mg/kg/injection, schedule: Q04DX003 (ip), vehicle: distilled water + Tween-80 98 % of control | endpoint: mean survival time, dose: 12.5 mg/kg/injection, schedule: Q04DX003 (ip), vehicle: distilled water + Tween-80 96 % of control | endpoint: mean survival time, dose: 25.0 mg/kg/injection, schedule: Q04DX003 (ip), vehicle: distilled water + Tween-80 90 % of control | endpoint: mean survival time, dose: 50.0 mg/kg/injection, schedule: Q04DX003 (ip), vehicle: distilled water + Tween-80 98 % of control

COc1ccc(OC)c(C2(O)C=C(Cl)C(=O)C=C2Cl)c1 (stereo not given)
inactive: [15] 101 % of control | [16] 97 % of control

Clc1nc(Cl)nc(-c2cccn2-c2ccccc2)n1
inactive: [8] 93 % of control | [9] 102 % of control | [11] 108 % of control | [13] 115 % of control

CCCCC1(CC)NC(=O)NC1=O (stereo not given)
inactive: endpoint: mean survival time, dose: 100.0 mg/kg/injection, schedule: Q01DX001 (ip), vehicle: other 92 % of control | endpoint: mean survival time, dose: 200.0 mg/kg/injection, schedule: Q01DX001 (ip), vehicle: other 92 % of control | endpoint: mean survival time, dose: 400.0 mg/kg/injection, schedule: Q01DX001 (ip), vehicle: other 87 % of control

O=c1cc(NCCCCOc2ccccc2)[nH]c(=O)[nH]1
inactive: [15] 96 % of control | [16] 93 % of control | [14] 96 % of control

CSc1ccc(NC(=O)CCl)cc1
inactive: [9] 91 % of control

O=[N+]([O-])O.[Cr+3].[NH2-].[NH2-].[NH2-].[NH2-].[NH2-].[NH2-]
inactive: endpoint: mean survival time, dose: 6.25 mg/kg/injection, schedule: Q01DX009 (ip), vehicle: saline sonified 88 % of control | endpoint: mean survival time, dose: 12.5 mg/kg/injection, schedule: Q01DX009 (ip), vehicle: saline sonified 97 % of control | endpoint: mean survival time, dose: 25.0 mg/kg/injection, schedule: Q01DX009 (ip), vehicle: saline sonified 90 % of control

C/C(=C/c1ccc([N+](=O)[O-])cc1)C(=O)O
inactive: [15] 103 % of control | [16] 100 % of control | [14] 103 % of control

Cc1ccc(NC(=O)N(CCCl)N=O)c(C)c1
active: endpoint: mean survival time, dose: 4.4 mg/kg/injection, schedule: Q01DX009 (ip), vehicle: other 167 % of control | endpoint: mean survival time, dose: 6.6 mg/kg/injection, schedule: Q01DX009 (ip), vehicle: other 161 % of control | endpoint: mean survival time, dose: 33.0 mg/kg/injection, schedule: Q01DX001 (ip), vehicle: other 183 % of control | endpoint: mean survival time, dose: 50.0 mg/kg/injection, schedule: Q01DX001 (ip), vehicle: other 200 % of control | endpoint: mean survival time, dose: 75.0 mg/kg/injection, schedule: Q01DX001 (ip), vehicle: other 178 % of control

CN(C)C(=O)NCCN(CCNC(=O)N(C)C)C(=O)N(C)C
inactive: [9] 98 % of control | [11] 96 % of control | [13] 94 % of control

OCCN=c1c2ccccc2n(O)c2c1ccc1ccccc12
inactive: [7] 104 % of control | [8] 112 % of control | [10] 108 % of control

C=CC(=O)c1ccccc1
inactive: endpoint: mean survival time, dose: 100.0 mg/kg/injection, schedule: Q04DX002 (ip), vehicle: saline with Tween-80 111 % of control

CN(C)c1ccc(N2C(N)=NC(N)=NC2(C)C)cc1
inactive: [3] 101 % of control | [4] 101 % of control | [5] 98 % of control
